According to patent publication US20240298644A1, “HETEROCYCLIC COMPOUND AND RESISTANT HARMFUL ARTHROPOD- CONTROLLING METHOD FOR COMPOSITION CONTAINING SAME” (SUMITOMO CHEMICAL COMPANY, LIMITED, priority 2021, published 2024):

Assays:
[1] = Test method 2: spray on rice seedlings, resistant brown planthopper larvae released; assay type: in vivo; conditions: Nilaparvata lugens, Comparative Test Example 2, 500 ppm
Protocol: Test compounds are made to a formulation according to a similar method to that described in the Formulation example 5, and thereto is added water containing 0.03 v/v % of Shindain (registered trademark) to prepare a diluted solution containing a prescribed concentration of the test compound.
Rice (Oryza sativa) seedling (on the developmental stage of the second true leaf) is planted in a container, and the diluted solutions are sprayed into the seedling in a ratio of 10 mL/seedling. Thereafter, 20 of 3rd instar larvae of resistant brown planthoppers (Nilaparvata lugens) (lineages collected in Kagoshima prefecture in 2018, screened with imidacloprid) are released onto the rice leaves. After 6 days, the number of the surviving insects is examined and the mortality is calculated by the following equation.
Mortality (%)={1−the number of the surviving insects/20}×100

[2] = test system: resistant cotton aphids (Aphis gossypii) (lineages collected in Miyazaki prefecture in 2012, screened with imidacloprid); assay: Test method 1: foliar spray on cucumber seedlings infested with resistant cotton aphids; assay type: in vivo; conditions: Comparative Test Example 1, 500 ppm
Protocol: Test compounds are made to a formulation according to a similar method to that described in the Formulation example 1, and thereto is added water containing 0.03 v/v % of Shindain (registered trademark) to prepare a diluted solution containing a prescribed concentration of the test compound.
Cucumber (cucumber sativus) seedling (on the developmental stage of the second true leaf) is planted in a cup, and approximately 30 resistant cotton aphids (Aphis gossypii) (all stages of life) (lineages collected in Miyazaki prefecture in 2012, screened with imidacloprid). After one day, the diluted solutions are sprayed into the seedling at a ratio of 10 mL/seedling. After 5 days, the number of the surviving insects is examined and the controlling value is calculated by the following equation.
Controlling value (%)−{1−(Cb×Tai)/(Cai×Tb)}×100
wherein the symbols in the equation represent the following descriptions. • Cb: Number of the test insects in untreated group; • Cai: Number of the surviving insects at the time of the examination in untreated group; • Tb: Number of the test insects in treated group; • Tai: Number of the surviving insects at the time of the examination in treated group;
Here the “untreated group” represents a group where a similar treatment procedure to that of treated group except not using the test compound is done.

[3] = Test method 5: spray on tomato seedlings carrying larvae of resistant tobacco whiteflies; conditions: Bemisia tabaci

Measured: mortality at 500 ppm

N#Cc1ccc(-c2nc(-c3c(Cl)cncc3Cl)no2)cc1 [Comparative compound 1]
10%: all assays above
